In PubChem BioAssay (NCI):
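A five-concentration, 48-hour dose response in 96-well plates underlies each endpoint, interpolated linearly between surrounding concentrations. TGI marks complete inhibition of growth.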

Columns and labels:
Assay in all cases: NCI tumour cell line growth inhibition, 48 h
786-0 renal = test system: 786-0 renal
A498 renal = test system: A498 renal
A549 NSCLC = test system: A549 NSCLC
ACHN renal = test system: ACHN renal
BT-549 breast = test system: BT-549 breast
CAKI-1 renal = test system: CAKI-1 renal
CCRF-CEM leukemia = test system: CCRF-CEM leukemia
COLO 205 colon = test system: COLO 205 colon
DU-145 prostate = test system: DU-145 prostate
HCC-2998 colon = test system: HCC-2998 colon
HCT-116 colon = test system: HCT-116 colon
HCT-15 colon = test system: HCT-15 colon
HL-60(TB) leukemia = test system: HL-60(TB) leukemia
HOP-62 NSCLC = test system: HOP-62 NSCLC
HOP-92 NSCLC = test system: HOP-92 NSCLC
HS 578T breast = test system: HS 578T breast
HT29 colon = test system: HT29 colon
IGROV1 ovarian = test system: IGROV1 ovarian
K-562 leukemia = test system: K-562 leukemia
KM12 colon = test system: KM12 colon
LOX IMVI melanoma = test system: LOX IMVI melanoma
M14 melanoma = test system: M14 melanoma
MALME-3M melanoma = test system: MALME-3M melanoma
MDA-MB-231 breast = test system: MDA-MB-231 breast
MDA-MB-435 = test system: MDA-MB-435
MDA-N = test system: MDA-N
NCI-H226 lung = test system: NCI-H226 lung
NCI-H23 lung = test system: NCI-H23 lung
NCI-H460 lung = test system: NCI-H460 lung
NCI-H522 lung = test system: NCI-H522 lung
NCI/ADR-RES ovarian = test system: NCI/ADR-RES ovarian
OVCAR-3 ovarian = test system: OVCAR-3 ovarian
OVCAR-4 ovarian = test system: OVCAR-4 ovarian
OVCAR-5 ovarian = test system: OVCAR-5 ovarian
OVCAR-8 ovarian = test system: OVCAR-8 ovarian
PC-3 prostate = test system: PC-3 prostate
RPMI-8226 leukemia = test system: RPMI-8226 leukemia
SF-268 CNS = test system: SF-268 CNS
SK-MEL-2 melanoma = test system: SK-MEL-2 melanoma
SK-MEL-28 melanoma = test system: SK-MEL-28 melanoma
SK-MEL-5 melanoma = test system: SK-MEL-5 melanoma
SN12C renal = test system: SN12C renal
SNB-19 CNS = test system: SNB-19 CNS
SNB-75 CNS = test system: SNB-75 CNS
SR leukemia = test system: SR leukemia
SW-620 colon = test system: SW-620 colon
T-47D breast = test system: T-47D breast
TK-10 renal = test system: TK-10 renal
U251 CNS = test system: U251 CNS
UACC-257 melanoma = test system: UACC-257 melanoma
UACC-62 melanoma = test system: UACC-62 melanoma
UO-31 renal = test system: UO-31 renal
EKVX NSCLC = test system: EKVX NSCLC
MCF7 breast = test system: MCF7 breast
MOLT-4 leukemia = test system: MOLT-4 leukemia
RXF 393 renal = test system: RXF 393 renal
SF-295 CNS = test system: SF-295 CNS
SF-539 CNS = test system: SF-539 CNS
SK-OV-3 ovarian = test system: SK-OV-3 ovarian

Structure (SMILES): COc1cccc(-c2c(C#N)c(N)nc3c2CCS(=O)(=O)c2ccc(C)cc2-3)c1
- TGI (786-0 renal): > 100 µM
- TGI (A498 renal): > 100 µM
- TGI (A549 NSCLC): > 100 µM
- TGI (ACHN renal): > 100 µM
- TGI (BT-549 breast): > 100 µM
- TGI (CAKI-1 renal): > 100 µM
- TGI (CCRF-CEM leukemia): > 100 µM
- TGI (COLO 205 colon): > 100 µM
- TGI (DU-145 prostate): > 100 µM
- TGI (HCC-2998 colon): > 100 µM
- TGI (HCT-116 colon): > 100 µM
- TGI (HCT-15 colon): > 100 µM
- TGI (HL-60(TB) leukemia): > 100 µM
- TGI (HOP-62 NSCLC): > 100 µM
- TGI (HOP-92 NSCLC): > 100 µM
- TGI (HS 578T breast): > 100 µM
- TGI (HT29 colon): > 100 µM
- TGI (IGROV1 ovarian): > 100 µM
- TGI (K-562 leukemia): > 100 µM
- TGI (KM12 colon): > 100 µM
- TGI (LOX IMVI melanoma): > 100 µM
- TGI (M14 melanoma): > 100 µM
- TGI (MALME-3M melanoma): > 100 µM
- TGI (MDA-MB-231 breast): > 100 µM
- TGI (MDA-MB-435): > 100 µM
- TGI (MDA-N): > 100 µM
- TGI (NCI-H226 lung): > 100 µM
- TGI (NCI-H23 lung): > 100 µM
- TGI (NCI-H460 lung): > 100 µM
- TGI (NCI-H522 lung): > 100 µM
- TGI (NCI/ADR-RES ovarian): > 100 µM
- TGI (OVCAR-3 ovarian): > 100 µM
- TGI (OVCAR-4 ovarian): > 100 µM
- TGI (OVCAR-5 ovarian): > 100 µM
- TGI (OVCAR-8 ovarian): > 100 µM
- TGI (PC-3 prostate): > 100 µM
- TGI (RPMI-8226 leukemia): > 100 µM
- TGI (SF-268 CNS): > 100 µM
- TGI (SK-MEL-2 melanoma): > 100 µM
- TGI (SK-MEL-28 melanoma): > 100 µM
- TGI (SK-MEL-5 melanoma): > 100 µM
- TGI (SN12C renal): > 100 µM
- TGI (SNB-19 CNS): > 100 µM
- TGI (SNB-75 CNS): > 100 µM
- TGI (SR leukemia): > 100 µM
- TGI (SW-620 colon): > 100 µM
- TGI (T-47D breast): > 100 µM
- TGI (TK-10 renal): > 100 µM
- TGI (U251 CNS): > 100 µM
- TGI (UACC-257 melanoma): > 100 µM
- TGI (UACC-62 melanoma): > 100 µM
- TGI (UO-31 renal): > 100 µM

Structure (SMILES): Cn1c(=O)c2c(nc(-n3nc(-c4ccc(Cl)cc4)cc3N)n2C)n(C)c1=O
- TGI (786-0 renal): > 100 µM
- TGI (A498 renal): > 100 µM
- TGI (A549 NSCLC): > 100 µM
- TGI (ACHN renal): > 100 µM
- TGI (BT-549 breast): > 100 µM
- TGI (CAKI-1 renal): > 100 µM
- TGI (CCRF-CEM leukemia): > 100 µM
- TGI (COLO 205 colon): > 100 µM
- TGI (DU-145 prostate): > 100 µM
- TGI (EKVX NSCLC): > 100 µM
- TGI (HCC-2998 colon): > 100 µM
- TGI (HCT-116 colon): > 100 µM
- TGI (HCT-15 colon): > 100 µM
- TGI (HL-60(TB) leukemia): > 100 µM
- TGI (HOP-62 NSCLC): 81.9 µM
- TGI (HOP-92 NSCLC): > 100 µM
- TGI (HS 578T breast): > 100 µM
- TGI (HT29 colon): > 100 µM
- TGI (IGROV1 ovarian): > 100 µM
- TGI (K-562 leukemia): > 100 µM
- TGI (KM12 colon): > 100 µM
- TGI (M14 melanoma): > 100 µM
- TGI (MALME-3M melanoma): 83.2 µM
- TGI (MCF7 breast): > 100 µM
- TGI (MDA-MB-231 breast): > 100 µM
- TGI (MDA-MB-435): > 100 µM
- TGI (MDA-N): > 100 µM
- TGI (MOLT-4 leukemia): > 100 µM
- TGI (NCI-H226 lung): > 100 µM
- TGI (NCI-H23 lung): > 100 µM
- TGI (NCI-H460 lung): > 100 µM
- TGI (NCI/ADR-RES ovarian): > 100 µM
- TGI (OVCAR-3 ovarian): > 100 µM
- TGI (OVCAR-4 ovarian): > 100 µM
- TGI (OVCAR-5 ovarian): > 100 µM
- TGI (OVCAR-8 ovarian): > 100 µM
- TGI (PC-3 prostate): > 100 µM
- TGI (RPMI-8226 leukemia): > 100 µM
- TGI (RXF 393 renal): > 100 µM
- TGI (SF-268 CNS): > 100 µM
- TGI (SF-295 CNS): > 100 µM
- TGI (SF-539 CNS): 69.4 µM
- TGI (SK-MEL-2 melanoma): > 100 µM
- TGI (SK-MEL-28 melanoma): > 100 µM
- TGI (SK-MEL-5 melanoma): > 100 µM
- TGI (SK-OV-3 ovarian): 91 µM
- TGI (SN12C renal): > 100 µM
- TGI (SNB-19 CNS): > 100 µM
- TGI (SR leukemia): > 100 µM
- TGI (TK-10 renal): > 100 µM
- TGI (U251 CNS): > 100 µM
- TGI (UACC-257 melanoma): > 100 µM
- TGI (UACC-62 melanoma): > 100 µM
- TGI (UO-31 renal): > 100 µM

Structure (SMILES): O=C1C(Cl)=C(OCCCCl)C(=O)c2c(O)ccc(O)c21
- TGI (786-0 renal): 4.81 µM
- TGI (A498 renal): 28.5 µM
- TGI (A549 NSCLC): 14.6 µM
- TGI (ACHN renal): 16.3 µM
- TGI (BT-549 breast): 3.86 µM
- TGI (CAKI-1 renal): 2.51 µM
- TGI (CCRF-CEM leukemia): 0.168 µM
- TGI (COLO 205 colon): 3.09 µM
- TGI (DU-145 prostate): 22.8 µM
- TGI (EKVX NSCLC): 40.9 µM
- TGI (HCC-2998 colon): 30.2 µM
- TGI (HCT-116 colon): 3.91 µM
- TGI (HCT-15 colon): 5.06 µM
- TGI (HOP-62 NSCLC): 22 µM
- TGI (HOP-92 NSCLC): 3.28 µM
- TGI (HS 578T breast): 22.8 µM
- TGI (HT29 colon): 5 µM
- TGI (IGROV1 ovarian): 13.1 µM
- TGI (K-562 leukemia): 1.7 µM
- TGI (KM12 colon): 29.1 µM
- TGI (LOX IMVI melanoma): 3.35 µM
- TGI (M14 melanoma): 2.96 µM
- TGI (MALME-3M melanoma): 3.6 µM
- TGI (MCF7 breast): 3.12 µM
- TGI (MDA-MB-231 breast): 6 µM
- TGI (MDA-N): 2.98 µM
- TGI (MOLT-4 leukemia): 1.86 µM
- TGI (NCI-H226 lung): 30.8 µM
- TGI (NCI-H23 lung): 5.53 µM
- TGI (NCI-H460 lung): 27.2 µM
- TGI (NCI/ADR-RES ovarian): 24.3 µM
- TGI (OVCAR-3 ovarian): 6.77 µM
- TGI (OVCAR-4 ovarian): 7.14 µM
- TGI (OVCAR-5 ovarian): 26.4 µM
- TGI (OVCAR-8 ovarian): 20.9 µM
- TGI (PC-3 prostate): 12.7 µM
- TGI (RPMI-8226 leukemia): 5.58 µM
- TGI (RXF 393 renal): 4.38 µM
- TGI (SF-268 CNS): 8.61 µM
- TGI (SF-295 CNS): 18.3 µM
- TGI (SF-539 CNS): 8.97 µM
- TGI (SK-MEL-28 melanoma): 4.48 µM
- TGI (SK-MEL-5 melanoma): 3.33 µM
- TGI (SK-OV-3 ovarian): 35.9 µM
- TGI (SN12C renal): 5.1 µM
- TGI (SNB-19 CNS): 32.5 µM
- TGI (SNB-75 CNS): 3.91 µM
- TGI (SR leukemia): 1.2 µM
- TGI (SW-620 colon): 4.29 µM
- TGI (T-47D breast): 6.43 µM
- TGI (TK-10 renal): 9.48 µM
- TGI (U251 CNS): 13.8 µM
- TGI (UACC-257 melanoma): 5.98 µM
- TGI (UACC-62 melanoma): 3.9 µM
- TGI (UO-31 renal): 12.1 µM
